{"source": "patent US10583173B2", "about": "“Methods of treating or preventing pruritis by blocking natriuretic polypeptide b” (priority 2013, dated 2020)", "type_in_all_cases": "in vivo, mouse", "key": {"[1]": {"system": "neurons in the dorsal root ganglion (DRG) and superficial dorsal horn (sDH)", "test": "Immediate early gene induction (Egr1 in DRG, cFos in sDH) by ISH", "description": "To gain additional evidence that systemic Nppb activates a central itch pathway, the pattern of cellular activation of neurons in the dorsal root ganglion (DRG) and superficial dorsal horn (sDH) was compared by analyzing induction of immediate early gene expression. The skin was stimulated by pruritogen and injections of noxious compounds and the robust induction of immediate early genes, Egr1 and cFos (in the DRG and sDH respectively) was evaluated. Intradermal injection of chloroquine was utilized to excite MrgprA3 peripheral DRG neurons. […] The number of positive Egr-1-positive cells correlated well with the previously reported numbers of MrgprA3-expressing receptor neurons in DRG. […] Therefore, the initial and later cellular stages of the pruriceptive neural pathway could be reliably monitored biochemically and anatomically and itch signaling could be distinguished from that elicited by the noxious agent formalin.\nIt was reasoned that if ivNppb was directly activating centrally, then induction of immediate early gene expression would be seen in sDH-neurons and not DRG neurons. […] As expected from the generalized scratching responses evoked by ivNppb, in both hemispheres of the spinal cord and along the entire length of the spinal cord, cFos-activated neurons could be detected. Furthermore, also consistent with the itch-behavioral result, the profile of cFos-activated neurons in the sDH was similar to that generated by epidermal injection of chloroquine."}, "[2]": {"system": "mice", "test": "Scratching after intradermal injection of pruritogens", "conditions": "control (wild-type) animals; doses of Table 1", "description": "(§1) Itch inducing substances (see Table 1) were injected intradermally into the shoulder of mice and numbers of scratching bouts assessed over 30 minutes. […] Table 1 also indicates the receptors or mechanisms believed to be activated by the various compounds in the itch response pathway.\nIntradermal injections were performed. The number of scratching bouts for substances that directly activate pruriceptors was recorded. The number of scratching bouts after injection with compound 48/80, which causes itch via an indirect route (McNeil et al., Neuroscience Bulletin, 28:100 (2012)), was also recorded. All of these agents (Table 1) reliably triggered multiple bouts of scratching in control animals (FIG. 1D), but Nppb^−/− mice were almost completely insensitive to the full range of pruritic substances tested (FIG. 1D)."}, "[3]": {"system": "mice", "test": "Scratching after intrathecal injection of GRP", "description": "(§2) All experiments using animals followed NIH guidelines and were approved by the National Institute of Dental and Craniofacial ACUC. The targeted JM8A3 ES-cell clone A04 with disruption of the Nppb gene was obtained from Mouse Biology Program (MBP), UC Davis and was used to generate chimeric mice. Chimeras were crossed with C57BL/6 mice and heterozygous offspring were mated to generate paired knockouts and controls. Transgenic (Tg) (gastrin releasing peptide (GRP)-enhanced green fluorescent protein (EGFP)) animals (Gong et al., Nature, 425:917 (2003)) were employed to localize expression of GRP. Male C57BL/6 (8-14 weeks) mice were used for selective toxin ablation and GRP-antagonist itch experiments. Ablation of Npra and GRP-receptor-expressing spinal cord interneurons was accomplished by intrathecal (segment L3/4) injection of Nppb-saporin (5 μg in 10 μl; Advanced targeting Systems, San Diego, Calif.) and GRP-saporin (2.5 μg) respectively. Experiments were initiated two weeks after toxin injection.\n(§3) Pretreatment with GRP antagonist deamino-Phe19,D-Ala24,D-Pro26-D-Phe27-GRP (Yegen et al., Regulatory Peptides, 61:175 (1996)) (1 nM in 10 μl) was used to block GRP-receptor.\n(§4) How Nppb induces this stereotyped scratch response was investigated. It was hypothesized that because this peptide is prominently expressed in somatosensory neurons, the most plausible explanation for its role would be if it acted as a specific itch-related neuromodulator (or neurotransmitter) in the spinal cord. […] Intrathecal injection of Nppb into Nppb^−/− mice also led to an equivalent phenotype (FIG. 1E). No significant differences in response between genotypes were found (Student's t-test). Loss of Nppb in sensory afferents was thus responsible for the pruriceptive deficits seen in mutant mice. Without being bound to a particular theory or mechanism, it is believed that Nppb-expression delineates the subset of somatosensory neurons that detect pruritic agents and that central release of Nppb from these neurons is necessary for the itch response."}, "[4]": {"system": "mice", "test": "Scratching after lumbar intrathecal injection of Nppb", "description": "as §2, §3, §4"}, "[5]": {"system": "Wild-type mice (C57BL/6)", "test": "Scratching after intravenous administration of natriuretic peptides (ivNppb)", "description": "Elevated blood Nppb is found in kidney disalysis patients. Accordingly, the effect of elevated blood Nppb on itching in mice was evaluated. Wild-type mice (C57BL/6) were intravenously administered Nppb and were untreated or treated with GRP-antagonist or Nppb saporin. The bouts of scratching were counted.\nNppb deficient or wild-type (C57BL/6) mice were intravenously (i.v.) administered Nppb, Nppa, or Nppc, and the bouts of scratches were measured.\nTo mimic the high concentration of Nppb found in renal itch patients, mice were i.v. administered Nppb (via tail vein injection). […] Approximately ten minutes after administration of Nppb, mice began to persistently scratch their flank, face, hind quarters and abdomens. This behavior slowly diminished and almost completely ceased approximately 1 hour after injection. The induction of scratching was dose dependent, with a 1.2 μg/kg dose producing saturating behavioral responses. In all subsequent experiments, a dose of 1.2 μg/kg Nppb (abbreviated as “ivNppb”) was used, and bouts of scratching were counted over a period of 1 hour.\nNpra neurons themselves express GRP and are thought to release GRP which, in turn, activates GRPR-cells."}, "[6]": {"system": "Wild-type mice (C57BL/6)", "test": "Histamine-induced scratching (bouts of scratching after intradermal histamine)", "conditions": "intradermal histamine 100 μg in 10 μl, scratching bouts over 30 minutes, vs histamine alone/untreated", "description": "as §2, §1, §3\nWild-type mice (C57BL/6) were administered histamine alone, a combination of histamine and a GRP antagonist, or a combination of histamine and anantin. […] to another receptor in the itch pathway and was used as a control. Bouts of scratching were counted."}, "[7]": {"conditions": "lumbar 4-5 segment intrathecal injection"}}, "note": "Where no end group is shown, it is not given here.", "data": [{"compound": "CCN(CC)CCCC(C)Nc1ccnc2cc(Cl)ccc12", "note": "(stereo not drawn) [chloroquine]", "values": [{"measurement": "Egr1 expression in DRG neurons", "setting": "[1]", "value": "induced Egr1 expression"}, {"measurement": "cFos induction in superficial dorsal horn (sDH) neurons", "setting": "[1]", "value": "induced cFos expression"}, {"measurement": "scratching / itch-behavior after intradermal injection of pruritic agent", "setting": "[2]", "value": "triggered itch-behavior"}]}, {"compound": "C=O", "note": "[formalin]", "values": [{"measurement": "Egr1 expression in DRG neurons", "setting": "[1]", "value": "induced Egr-1 expression in a far larger number"}, {"measurement": "cFos induction in superficial dorsal horn (sDH) neurons", "setting": "[1]", "value": "induced cFos expression"}]}, {"compound": "GRP: gastrin releasing peptide (APVSTGAGGGTVLAKMYPRGSHWAVGHLM; ends and bridges not checked; UniProt Q8R1I2 24-52, looked up)", "values": [{"measurement": "itch responses induced by intrathecal injection of the peptide", "setting": "[3]; GRP 1 nM in 10 μl, mutant and control animals", "value": "triggered itch responses"}, {"measurement": "onset of pruriceptive response after intrathecal GRP", "setting": "[3]; [7]", "value": "~5", "unit": "min"}]}, {"compound": "Nppb", "values": [{"measurement": "scratching induced by intrathecal injection of the peptide", "setting": "[4]; Nppb 5 μg in 10 μl, lumbar 4-5 segment, control and Nppb−/− mice", "value": "induced repeated bouts of scratching"}, {"measurement": "onset of pruriceptive response after intrathecal Nppb", "setting": "[4]; [7]", "value": "~5", "unit": "min"}, {"measurement": "scratching/itch induced by i.v. administration of the peptide", "setting": "[5]; i.v. tail vein", "value": "robust whole body scratching behavior"}, {"measurement": "time after i.v. administration at which persistent scratching began", "setting": "[5]; i.v. tail vein", "value": "Approximately ten"}, {"measurement": "time after i.v. injection at which scratching almost completely ceased", "setting": "[5]; i.v. tail vein", "value": "approximately 1 hour"}, {"measurement": "dose producing saturating behavioral responses (scratching)", "setting": "[5]; i.v., dose dependent", "value": 1.2, "unit": "µg/kg"}, {"measurement": "Egr1 expression in DRG neurons", "setting": "[1]", "value": "did not induce expression of Egr1"}, {"measurement": "cFos induction in superficial dorsal horn (sDH) neurons", "setting": "[1]", "value": "caused cFos induction"}]}, {"compound": "Nppc: C-type natriuretic peptide, selective agonist for natriuretic peptide receptor Nprb (GLSKGCFGLKLDRIGSMSGLGC; ends and bridges not checked; cysteine pairing not given here; UniProt Q61839 105-126, looked up)", "values": [{"measurement": "scratching/itch induced by i.v. administration of the peptide", "setting": "[5]; i.v. (tail vein), listed as C-type natriuretic peptide", "value": "produced no observable reaction"}, {"measurement": "scratching/itch induced by i.v. administration of the peptide", "setting": "[5]; i.v. tail vein", "value": "did not induce significant itch"}]}, {"compound": "anantin", "values": [{"measurement": "bouts of scratching after histamine injection, effect of treatment", "setting": "[6]", "value": "attenuated histamine-induced itch"}, {"measurement": "bouts of scratching after histamine injection, effect of treatment", "setting": "[6]; listed as Anantin", "value": "statistically different"}]}, {"compound": "deamino-Phe19,D-Ala24,D-Pro26-D-Phe27-GRP [GRP antagonist]", "values": [{"measurement": "bouts of scratching after histamine injection, effect of treatment", "setting": "[6]", "value": "attenuated scratching"}, {"measurement": "bouts of scratching after histamine injection, effect of treatment", "setting": "[6]; listed as GRP-antagonist", "value": "statistically different"}, {"measurement": "scratching induced by lumbar intrathecal injection of Nppb, effect of pretreatment", "setting": "[4]; Nppb 5 μg in 10 μl intrathecal, vs untreated mice", "value": "strongly attenuated"}, {"measurement": "scratching induced by intrathecal GRP, effect of pretreatment", "setting": "[3]; GRP 1 nM in 10 μl intrathecal, vs untreated mice", "value": "attenuated scratching"}, {"measurement": "i.v. Nppb-induced itch, effect of pretreatment", "setting": "[5]; i.v. Nppb, bouts of scratching, vs untreated", "value": "blocked"}]}]}
